Source: patent US20030054053A1, “Methods and compositions for inhibiting the proliferation of prostate cancer cells” (priority 2001, published 2003)

Legend:
Type in all cases: cell-based, Human
[1] = system: LNCaP cells; experiment: LNCaP cell proliferation, MTS assay
Method: (§1) Human prostate cancer cell line, LNCaP (American Type Culture Collection (ATCC), Manassas, Va.), was grown in RPMI 1640 medium (Mediatech, Herndon, Va.) supplemented with 5% fetal bovine serum (FBS) and 5% CO2 at 37° C. until reaching approximately 50-70% confluence. The media were changed to serum-free RPMI 1640 at 24 hours prior to experiments being performed to deplete undesired steroids. […] Equivalent amounts of solvent were added to control cells.
(§2) Five days later, cell proliferation was measured by MTS assay kit (Promega, Madison, Wis.), and PSA and hK2 levels in spent media were determined by the Tandem-E PSA kit (Hybritech Inc., San Diego, Calif.) or Mayo's hK2 assay (Zhang et al., 1999, Endocrin., 140:1665-71).

[2] = system: androgen receptor; experiment: Immunocytochemical staining, whole cell androgen receptor in LNCaP cells; conditions: Mib alone versus absence of androgens
Method: Twenty-four hrs later, LNCaP cell slides were washed with 1×PBS, and fixed in acetone at −20° C. for 10 min. The air-dried slides were treated with EtOH/chloroform (1:1) mixture for 5 min to permeate the cell membrane and air-dried again. The slides were washed with 1×TBST and stained with a monoclonal antibody against the human androgen receptor (Pharmingen) using a DAKO kit (DAKO). The androgen receptor staining was observed using microscopy (Zeiss, Thornwood, N.Y.). The density of androgen receptor in a nucleus (or a whole cell) and the area of the nucleus or the whole cell were quantified by KS400 software (Zeiss) provided by the Mayo Molecular Core Facility. The androgen receptor protein level in a nucleus or a whole cell was calculated by multiplication of the density of androgen receptor in the nucleus or the whole cell with the area of the nucleus or the whole cell, respectively. In each sample, 20 to 25 cells were analyzed. All results were analyzed by 2-tailed Student's t-test. A p<0.05 was accepted as the level of significance.

[3] = system: PSA; experiment: PSA level in spent media of LNCaP cells (Tandem-E PSA kit); conditions: 1 nM Mib, five days
Method: as §1, §2

[4] = system: hK2; experiment: hK2 level in spent media of LNCaP cells (Mayo's hK2 assay); conditions: 1 nM Mib, five days
Method: as §1, §2

[5] = system: FKBP51; experiment: FKBP51 protein level, Western blot in LNCaP cells; conditions: 1 nM Mib, 24 hrs
Method: Cells were harvested and the whole cell lysate and nuclear extract were prepared as described (Zhu et al., 1999, Endocrin., 140:5451-4). Western blotting analysis was performed according to the protocol described (Id). A mouse antibody against human FKBP51 (1:5,000 dilution) (a gift from Dr. David Toft, Mayo Clinic), the human androgen receptor (1:1000 or 1:2000 dilution) (Pharmingen, San Diego, Calif.) or human Sp1 (1:2000 dilution) (Santa Cruz, Santa Cruz, Calif.) was used as the primary antibody. Ponceau S staining was used for monitoring protein loading and transfer efficiency (Mitchell et al., 1999, Cancer Res., 59:5892-5).

Row | SMILES | LNCaP cell growth in the presence of Mib ([1]; 1 nM Mib alone) | androgen receptor level [2] | androgen-stimulated cell growth ([1]; 1 nM Mib, five days, MTS) | androgen-stimulated cell growth at 75 μM ([1]; 1 nM Mib, silibin 75 μM) | cell proliferation in the absence of Mib ([1]; no Mib, five days, MTS) | PSA accumulation stimulated by androgens [3] | hK2 accumulation stimulated by androgens [4] | androgen-induced FKBP51 protein level [5]
1 | C[C@@H]1CC2=CC(=O)CC[C@@H]2[C@H]2CC[C@@]3(C)[C@@H](CC[C@]3(C)O)[C@@H]21 [Mib, mibolerone, reference compound] | increased significantly | increased the androgen receptor level significantly |  |  |  |  |  | 
2 | COc1cc(C2Oc3cc([C@H]4Oc5cc(O)cc(O)c5C(=O)[C@@H]4O)ccc3OC2CO)ccc1O (some centres unmarked) [silibin] |  |  | inhibited | fully suppressed | neither silymarin or silibin affected | inhibited | inhibited | reduced
